The target of test [1] is T1, Testis-specific serine/threonine-protein kinase 2 (Homo sapiens) (UniProt Q96PF2).
T1 sequence (whole entry): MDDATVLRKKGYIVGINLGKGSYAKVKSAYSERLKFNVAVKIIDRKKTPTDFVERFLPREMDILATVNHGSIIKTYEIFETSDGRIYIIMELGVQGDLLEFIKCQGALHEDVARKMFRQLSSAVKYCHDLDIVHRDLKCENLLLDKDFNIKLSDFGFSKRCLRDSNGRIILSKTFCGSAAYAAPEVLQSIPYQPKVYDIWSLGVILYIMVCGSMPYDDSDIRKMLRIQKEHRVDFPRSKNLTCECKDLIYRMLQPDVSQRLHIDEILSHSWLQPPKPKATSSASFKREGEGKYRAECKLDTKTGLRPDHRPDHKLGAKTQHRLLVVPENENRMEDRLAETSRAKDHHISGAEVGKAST
The test can be described thus: Inhibition of human recombinant TSSK2 at 40 nM related to control ULK1.

Test [2] deals with Tyrosine-protein kinase Fer (Homo sapiens) (UniProt P16591). Put plainly: Inhibition of human recombinant FER at 40 nM related to control ULK1.
Test [3] addresses Dual specificity mitogen-activated protein kinase kinase 2 (Homo sapiens) (UniProt P36507). Put plainly: Inhibition of human recombinant MAP2K2 at 500 nM related to control ULK1.
Test [4] concerns the target Serine/threonine-protein kinase 26 (Homo sapiens) (UniProt Q9P289). The test can be described thus: Inhibition of human recombinant MST4 at 500 nM in presence of ATP by radiometric assay relative to control.
The target of test [5] is Cyclin-dependent kinase 1 (Homo sapiens) (UniProt P06493). Put plainly: Inhibition of human recombinant CDC2 at 500 nM related to control ULK1.
Test [6] deals with Serine/threonine-protein kinase D2 (Homo sapiens) (UniProt Q9BZL6). Put plainly: Inhibition of human recombinant PKD2 at 500 nM related to control ULK1.
The target of test [7] is Calcium/calmodulin-dependent protein kinase type II subunit beta (Homo sapiens) (UniProt Q13554). Put plainly: Inhibition of human recombinant CaMK2b at 500 nM in presence of ATP by radiometric assay relative to control.
Test [8] deals with Vascular endothelial growth factor receptor 3 (Homo sapiens) (UniProt P35916). The test can be described thus: Inhibition of human recombinant FLT4 at 500 nM in presence of ATP by radiometric assay relative to control.
Test [9] addresses Activated CDC42 kinase 1 (Homo sapiens) (UniProt Q07912). The test can be described thus: Inhibition of human recombinant ACK at 15 nM related to control ULK1.
Test [10] has as its target Casein kinase I isoform gamma-1 (Homo sapiens) (UniProt Q9HCP0). Put plainly: Inhibition of human recombinant CK1g1 at 15 nM related to control ULK1.
Test [11] addresses Cyclin-dependent kinase 18 (Homo sapiens) (UniProt Q07002). Put plainly: Inhibition of human recombinant PCTAIRE3 at 15 nM in presence of ATP by radiometric assay relative to control.
Test [12] deals with T2, Tyrosine-protein kinase ITK/TSK (Homo sapiens) (UniProt Q08881).
T2 sequence (whole entry): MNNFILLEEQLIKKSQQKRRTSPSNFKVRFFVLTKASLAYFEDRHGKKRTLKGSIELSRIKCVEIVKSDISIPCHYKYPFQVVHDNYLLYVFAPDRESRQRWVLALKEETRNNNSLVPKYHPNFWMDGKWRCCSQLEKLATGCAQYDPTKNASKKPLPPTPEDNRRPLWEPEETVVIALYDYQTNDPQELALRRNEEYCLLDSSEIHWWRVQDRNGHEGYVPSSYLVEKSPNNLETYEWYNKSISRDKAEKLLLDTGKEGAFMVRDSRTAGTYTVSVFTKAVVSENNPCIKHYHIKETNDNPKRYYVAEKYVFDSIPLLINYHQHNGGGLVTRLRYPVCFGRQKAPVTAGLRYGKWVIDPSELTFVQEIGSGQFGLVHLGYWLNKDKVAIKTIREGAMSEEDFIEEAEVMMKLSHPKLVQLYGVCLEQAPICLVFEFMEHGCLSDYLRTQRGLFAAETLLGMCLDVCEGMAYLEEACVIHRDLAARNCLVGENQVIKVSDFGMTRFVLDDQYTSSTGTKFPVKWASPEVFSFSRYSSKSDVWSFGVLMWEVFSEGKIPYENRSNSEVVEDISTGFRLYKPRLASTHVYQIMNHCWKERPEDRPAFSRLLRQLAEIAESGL
Put plainly: Inhibition of human recombinant ITK at 15 nM related to control ULK1.

In test [13] the target is T3, Calcium/calmodulin-dependent protein kinase type IV (Homo sapiens) (UniProt Q16566).
T3 sequence (whole entry): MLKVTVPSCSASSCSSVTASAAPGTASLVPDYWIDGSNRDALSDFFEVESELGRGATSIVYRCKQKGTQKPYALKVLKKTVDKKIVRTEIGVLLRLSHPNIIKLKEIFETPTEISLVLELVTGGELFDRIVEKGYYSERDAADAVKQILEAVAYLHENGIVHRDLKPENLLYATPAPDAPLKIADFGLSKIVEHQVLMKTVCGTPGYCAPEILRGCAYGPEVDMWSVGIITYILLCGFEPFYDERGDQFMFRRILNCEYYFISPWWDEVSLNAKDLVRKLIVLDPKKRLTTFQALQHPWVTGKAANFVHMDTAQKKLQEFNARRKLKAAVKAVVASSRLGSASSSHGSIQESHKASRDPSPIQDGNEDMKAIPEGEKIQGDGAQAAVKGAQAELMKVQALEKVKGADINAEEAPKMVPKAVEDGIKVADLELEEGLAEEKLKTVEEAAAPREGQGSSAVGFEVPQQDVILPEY
Put plainly: Inhibition of human recombinant CaMK4 at 15 nM related to control ULK1.

In test [14] the target is Serine/threonine-protein kinase Chk2 (Homo sapiens) (UniProt O96017). The test can be described thus: Inhibition of human recombinant CHK2 at 15 nM related to control ULK1.
Test [15] deals with Tyrosine-protein kinase CSK (Homo sapiens) (UniProt P41240). Put plainly: Inhibition of human recombinant CSK at 15 nM related to control ULK1.
Test [16] addresses Protein kinase C alpha type (Homo sapiens) (UniProt P17252). The test can be described thus: Inhibition of human recombinant PKCa at 15 nM related to control ULK1.
Test [17] addresses Calcium/calmodulin-dependent protein kinase type 1G (Homo sapiens) (UniProt Q96NX5). The test can be described thus: Inhibition of human recombinant CaMK1g at 15 nM related to control ULK1.
In test [18] the target is G protein-coupled receptor kinase 6 (Homo sapiens) (UniProt P43250). The test can be described thus: Inhibition of human recombinant GPRK6 at 15 nM in presence of ATP by radiometric assay relative to control.
Test [19] concerns the target LIM domain kinase 1 (Homo sapiens) (UniProt P53667). Put plainly: Inhibition of human recombinant LIMK1 at 15 nM in presence of ATP by radiometric assay relative to control.
The target of test [20] is Glycogen synthase kinase-3 alpha (Homo sapiens) (UniProt P49840). The test can be described thus: Inhibition of human recombinant GSK3A at 15 nM in presence of ATP by radiometric assay relative to control.

Structures are written as SMILES.

Sequence of Cyclin-dependent kinase 1 (Homo sapiens) (P06493 whole entry, looked up): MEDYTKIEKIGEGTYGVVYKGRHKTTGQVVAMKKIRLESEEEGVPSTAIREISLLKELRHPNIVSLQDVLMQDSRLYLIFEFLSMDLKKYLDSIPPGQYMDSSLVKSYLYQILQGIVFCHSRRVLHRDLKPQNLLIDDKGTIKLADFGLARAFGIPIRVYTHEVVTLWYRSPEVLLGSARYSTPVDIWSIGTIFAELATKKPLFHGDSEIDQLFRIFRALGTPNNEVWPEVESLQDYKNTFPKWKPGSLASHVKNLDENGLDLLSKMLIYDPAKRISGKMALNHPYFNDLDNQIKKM
Sequence of Cyclin-dependent kinase 18 (Homo sapiens) (Q07002 whole entry): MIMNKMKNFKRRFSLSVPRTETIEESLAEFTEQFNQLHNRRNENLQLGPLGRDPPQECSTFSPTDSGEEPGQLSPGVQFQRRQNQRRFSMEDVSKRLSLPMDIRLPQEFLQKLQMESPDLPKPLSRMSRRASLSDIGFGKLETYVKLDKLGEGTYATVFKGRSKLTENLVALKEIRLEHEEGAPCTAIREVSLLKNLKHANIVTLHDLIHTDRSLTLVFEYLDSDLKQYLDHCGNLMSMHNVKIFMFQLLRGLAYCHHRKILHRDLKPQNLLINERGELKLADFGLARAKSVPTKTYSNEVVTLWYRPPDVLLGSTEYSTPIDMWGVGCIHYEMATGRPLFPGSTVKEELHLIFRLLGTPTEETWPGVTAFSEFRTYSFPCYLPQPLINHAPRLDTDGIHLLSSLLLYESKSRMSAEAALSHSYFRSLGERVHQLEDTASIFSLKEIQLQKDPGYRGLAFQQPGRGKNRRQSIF
Sequence of Activated CDC42 kinase 1 (Homo sapiens) (Q07912 whole entry, looked up, canonical isoform): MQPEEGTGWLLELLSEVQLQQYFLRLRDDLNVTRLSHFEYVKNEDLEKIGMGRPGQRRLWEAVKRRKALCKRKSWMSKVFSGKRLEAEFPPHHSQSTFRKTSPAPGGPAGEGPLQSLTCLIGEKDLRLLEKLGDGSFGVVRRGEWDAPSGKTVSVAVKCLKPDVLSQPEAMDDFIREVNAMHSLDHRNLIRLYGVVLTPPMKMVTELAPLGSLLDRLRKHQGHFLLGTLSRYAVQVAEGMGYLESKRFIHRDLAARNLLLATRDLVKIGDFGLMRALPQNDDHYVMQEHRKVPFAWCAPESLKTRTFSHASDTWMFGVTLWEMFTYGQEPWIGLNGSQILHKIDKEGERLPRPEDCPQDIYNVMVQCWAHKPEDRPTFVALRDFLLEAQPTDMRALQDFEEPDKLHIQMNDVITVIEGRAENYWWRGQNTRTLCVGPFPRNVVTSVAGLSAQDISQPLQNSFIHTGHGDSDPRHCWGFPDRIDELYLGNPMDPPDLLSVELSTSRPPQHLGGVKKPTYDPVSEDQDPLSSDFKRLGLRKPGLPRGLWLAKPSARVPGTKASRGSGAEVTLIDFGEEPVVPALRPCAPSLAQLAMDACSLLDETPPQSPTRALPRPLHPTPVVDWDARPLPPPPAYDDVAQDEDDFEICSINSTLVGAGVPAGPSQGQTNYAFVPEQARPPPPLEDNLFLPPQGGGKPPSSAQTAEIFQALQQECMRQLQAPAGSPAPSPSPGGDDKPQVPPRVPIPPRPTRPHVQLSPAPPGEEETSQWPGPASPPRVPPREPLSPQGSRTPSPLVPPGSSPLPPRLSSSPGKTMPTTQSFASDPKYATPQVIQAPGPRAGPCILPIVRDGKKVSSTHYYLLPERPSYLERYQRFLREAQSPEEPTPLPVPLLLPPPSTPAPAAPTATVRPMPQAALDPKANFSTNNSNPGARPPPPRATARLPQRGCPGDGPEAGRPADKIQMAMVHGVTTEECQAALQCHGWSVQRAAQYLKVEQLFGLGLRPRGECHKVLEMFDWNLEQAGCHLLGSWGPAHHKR
Sequence of Dual specificity mitogen-activated protein kinase kinase 2 (Homo sapiens) (P36507 whole entry): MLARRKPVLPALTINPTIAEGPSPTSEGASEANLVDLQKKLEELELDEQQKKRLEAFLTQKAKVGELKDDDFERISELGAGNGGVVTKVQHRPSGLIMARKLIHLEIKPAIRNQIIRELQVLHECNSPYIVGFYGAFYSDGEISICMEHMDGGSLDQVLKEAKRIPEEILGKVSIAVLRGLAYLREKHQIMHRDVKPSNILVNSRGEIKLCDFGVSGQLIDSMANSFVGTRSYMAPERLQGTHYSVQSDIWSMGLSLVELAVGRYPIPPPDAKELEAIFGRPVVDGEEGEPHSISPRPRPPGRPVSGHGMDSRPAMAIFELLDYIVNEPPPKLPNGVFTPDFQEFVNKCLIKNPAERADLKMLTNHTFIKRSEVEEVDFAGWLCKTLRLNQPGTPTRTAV
Sequence of Tyrosine-protein kinase CSK (Homo sapiens) (P41240 2-450 limits assumed): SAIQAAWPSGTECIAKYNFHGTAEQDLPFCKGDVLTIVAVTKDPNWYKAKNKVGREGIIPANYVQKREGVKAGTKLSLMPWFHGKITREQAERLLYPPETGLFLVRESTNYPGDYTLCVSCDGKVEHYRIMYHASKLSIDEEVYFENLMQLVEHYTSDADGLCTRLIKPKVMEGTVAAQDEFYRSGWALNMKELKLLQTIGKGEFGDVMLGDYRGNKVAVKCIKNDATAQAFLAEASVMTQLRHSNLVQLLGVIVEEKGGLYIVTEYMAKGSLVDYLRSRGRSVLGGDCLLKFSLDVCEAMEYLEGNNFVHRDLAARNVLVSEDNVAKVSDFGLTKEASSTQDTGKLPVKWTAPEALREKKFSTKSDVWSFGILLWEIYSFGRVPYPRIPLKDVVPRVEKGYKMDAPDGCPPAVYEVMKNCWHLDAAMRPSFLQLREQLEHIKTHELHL
Sequence of Calcium/calmodulin-dependent protein kinase type 1G (Homo sapiens) (Q96NX5 whole entry): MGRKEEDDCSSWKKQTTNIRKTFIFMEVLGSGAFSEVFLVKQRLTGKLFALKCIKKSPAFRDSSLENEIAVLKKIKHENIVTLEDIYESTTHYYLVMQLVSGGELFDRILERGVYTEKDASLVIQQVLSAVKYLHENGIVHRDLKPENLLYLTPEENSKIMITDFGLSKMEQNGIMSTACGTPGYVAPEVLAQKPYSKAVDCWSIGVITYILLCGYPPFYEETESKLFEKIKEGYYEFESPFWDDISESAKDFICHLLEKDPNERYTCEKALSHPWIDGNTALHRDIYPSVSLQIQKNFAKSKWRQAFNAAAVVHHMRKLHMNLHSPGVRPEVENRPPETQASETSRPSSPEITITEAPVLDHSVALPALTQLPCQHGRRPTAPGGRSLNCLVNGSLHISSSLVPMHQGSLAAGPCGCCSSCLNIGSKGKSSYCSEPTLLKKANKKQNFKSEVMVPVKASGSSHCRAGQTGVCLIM
Sequence of Glycogen synthase kinase-3 alpha (Homo sapiens) (P49840 2-483 limits assumed): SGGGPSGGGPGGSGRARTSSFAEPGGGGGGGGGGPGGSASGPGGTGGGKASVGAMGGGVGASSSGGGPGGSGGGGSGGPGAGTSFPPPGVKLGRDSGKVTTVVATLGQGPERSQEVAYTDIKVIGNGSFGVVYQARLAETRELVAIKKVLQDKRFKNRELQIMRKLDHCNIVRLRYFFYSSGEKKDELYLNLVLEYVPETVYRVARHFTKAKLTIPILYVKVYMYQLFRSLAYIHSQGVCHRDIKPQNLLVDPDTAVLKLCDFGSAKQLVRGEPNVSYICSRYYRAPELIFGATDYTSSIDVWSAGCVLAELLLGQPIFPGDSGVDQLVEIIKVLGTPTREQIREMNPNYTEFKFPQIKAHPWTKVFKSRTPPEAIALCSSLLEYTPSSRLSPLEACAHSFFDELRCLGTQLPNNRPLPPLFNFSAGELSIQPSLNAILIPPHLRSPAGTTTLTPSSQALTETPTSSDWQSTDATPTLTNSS
Sequence of Serine/threonine-protein kinase Chk2 (Homo sapiens) (O96017 whole entry): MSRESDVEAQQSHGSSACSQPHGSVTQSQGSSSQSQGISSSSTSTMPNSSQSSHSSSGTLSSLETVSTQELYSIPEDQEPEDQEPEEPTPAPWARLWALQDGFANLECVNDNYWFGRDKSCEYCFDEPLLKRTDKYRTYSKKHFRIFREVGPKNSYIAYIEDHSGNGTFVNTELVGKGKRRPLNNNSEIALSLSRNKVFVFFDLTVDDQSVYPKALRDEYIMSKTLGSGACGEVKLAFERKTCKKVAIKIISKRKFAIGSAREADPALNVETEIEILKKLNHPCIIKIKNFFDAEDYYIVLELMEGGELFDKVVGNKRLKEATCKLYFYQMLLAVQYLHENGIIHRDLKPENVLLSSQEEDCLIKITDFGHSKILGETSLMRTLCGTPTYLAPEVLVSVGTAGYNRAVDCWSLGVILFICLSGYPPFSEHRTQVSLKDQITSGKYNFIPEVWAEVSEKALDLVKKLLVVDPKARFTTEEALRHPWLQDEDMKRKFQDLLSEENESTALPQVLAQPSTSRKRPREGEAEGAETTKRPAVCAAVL

On to `O=C(N[C@@H](C1CC1)C(F)(F)F)c1cc(-c2cnn3cc(-c4ccc(F)cc4)cnc23)cs1`, for which the fold change (FC) in [1] and in test [2] was 0 in each case.

In the case of `CNC(=O)c1ccccc1Oc1nc(Nc2cc(OC)c(OC)c(OC)c2)ncc1Br`, the results for the fold change (FC) in test [3], in [5] and in test [6] were 0, 0.41 and 0.16, respectively. Further, the results for the inhibition in test [4], in test [7] and in test [8] were 0%, 0% and 23%, respectively.

Turning to `CC(C)[C@H](NC(=O)c1cc(-c2cnn3cc(-c4ccc(OCCN5CCCCC5)cc4)cnc23)cs1)C(F)(F)F`, the fold change (FC) in test [9] is 0; in [10], 0; in [12], 0.05; in test [13], 0; in test [14], 0; in test [15] it was 0.14. The values for the fold change (FC) in test [16] and in test [17] were 0.08 and 0, respectively. The inhibition in test [11] was found to be 67%; in test [18], 0%; in test [19] it was 56%; in [20], 0%.

These data come from ChEMBL document CHEMBL5653631, “A Potent and Selective ULK1 Inhibitor Suppresses Autophagy and Sensitizes Cancer Cells to Nutrient Stress” (iScience, 2018).
